In patent publication US4416826A, “Peresters and use thereof” (priority 1980, dated 1983):
“Also recorded” adds a separate entry of the source. One block for each compound: values may come before it.

Legend:
[1] = Triplet energy; format: physicochemical
[2] = Photolysis of peresters and analysis of photoproducts; format: physicochemical; conditions: methanol compared with cyclohexane or with other peresters
Procedure: The amount of perester used is in the range of 300-500 mg. The solutions are placed in Pyrex tubes, flushed with nitrogen for 10 min., and sealed with a rubber cap.
After the irradiation, the yield of CO2 is measured by applying N2 pressure and trapping the CO2 with a Ba(OH)2 solution. The photolyzed solutions are evaporated (in the case of perester Ia treatment with excess diazomethane gives the best separation procedure) and again evaporated. Chromatography over 2 mm silica gel plates (E. Merck) with dichloromethane as the developing solvent separates the products. Extraction of the silica gel is done with ether. The identity of each sample is confirmed by GLC or high-pressure LC by comparison with authentic samples or by melting points of the solids.
This is shown by comparison with an authentic sample and combination of spectroscopic techniques. […] The same product is formed when 4-benzoylbenzoic acid is irradiated for 2 hours in CH3 OH in 26% yield. The structure of this secondary photoproduct is shown by independent synthesis (reduction of methyl 4-benzoylbenzoate by NaBH4). Among other secondary photoproducts found in small amounts is a mixture of pinacols. These are confirmed by synthesis of a similar pinacol mixture upon irradiation of methyl 4-benzoylbenzoate in isopropyl alcohol. […]

[3] = Photodecomposition kinetics and quantum yields at 366 nm (benzophenone-benzhydrol actinometry); format: physicochemical
Procedure: Kinetic studies are carried out in degassed, sealed tubes by irradiating them with 366 nm light obtained from a Hanovia medium-pressure mercury lamp by combining the Corning Filters 0-52 and 7-60. The decompositions of the […] followed by the carbonyl IR absorption adjacent to the peroxide group (O=COO--) (1770 cm^-1). Benzophenone-benzhydrol redox actinometry are used throughout the study. In particular, a solution of […] (2 mL) in the appropriate solvent is placed in Pyrex tubes (12-mm diameter), degassed, and sealed under vacuum. Three cycles of freeze-thaw removes dissolved oxygen. The tubes are placed in a merry-go-round around a water-cooled light source, removed at different predetermined intervals, and kept frozen in liquid nitrogen in the dark until analysis is done. The estimation of […] done by quantitative IR, monitoring the carbonyl peak at 1770 cm^-1. […] Absorbance is measured with a 0.1 mm NaCl cell against solvent reference. With every run, two tubes containing actinometric solutions (benzophenone (0.1 M) and benzhydrol (0.05 M) in benzene are irradiated.

[4] = Polymerization of methyl methacrylate; conditions: initiator 5 × 10^-2 M, [MMA] = 3.1 M, 25° C., benzene
Procedure: Commercial methyl methacrylate monomer is washed three times with 2% NaOH solution to remove stabilizer. It is then washed with distilled water three times, dried with molecular sieves, and distilled under vacuum before use. Polymerization solutions are prepared in cylindrical tubes which are degassed and sealed. The amount of polymer formed is determined by precipitating the polymer with an excess of methanol, washing with methanol, and filtering through fine sintered crucibles (previously weighed) followed by drying in a vacuum oven. The irradiation condition is the same as that in the decomposition rate example hereinabove.

[5] = Stern-Volmer triplet quenching with naphthalene; format: physicochemical; conditions: C6 H6
From the text: All the peresters give linear Stern-Volmer plots when naphthalene is used as triplet quencher.

[6] = Thermal stability / thermal decomposition of peresters in the dark; format: physicochemical
[7] = literature discussion; cited from earlier work
[8] = Polymerization of unsaturated polyester films under UV lamp (wipe resistance, pendulum hardness); conditions: for Passes necessary to achieve resistance to wiping: 0.2 parts in 10 parts resin, 100μ film, 17 m/min
Procedure: This mixture is stirred until a solution is obtained, which is then drawn out on glass plates with a film drawer (100μ). […] The samples are passed, on a conveyer belt, under the UV-lamp at a rate of 17 m/min. (20 volts).
In addition, the hardness of the film is determined using a pendulum apparatus according to Konig.

[9] = Solubility in benzene; format: physicochemical
[10] = Photopolymerization of styrene, radical efficiency; conditions: chloroform, [I] 5.00 × 10^-3 M
Procedure: (§1) Commercial styrene is washed three times with ice cold 2% NaOH solution followed by washing (four times) with distilled water. The styrene is dried over anhydrous CaCl2 and distilled under vacuum before use. The middle fraction of the distillate is used for polymerization. Solvents are purified by conventional means and distilled under N2 atmosphere.
(§2) The irradiations are carried out in degassed (three cycles of freeze-thaw under high vacuum) sealed 15-mm Pyrex tubes. The tubes are placed in a merry-go-round with a filtered UV source of 366 nm at the center and the yield of polymer is measured (below 10% conversion) gravimetrically. In all of the cases, tubes of the same size and same volume of solution are used. Number-average molecular weights of the purified polymers are determined by viscometry in a benzene solution. After the polymerization, an aliquot of 0.5 ml from each reaction tube is placed in 2-ml volumetric flasks. The solvent and excess monomer are evaporated under high vacuum for several hours. The remaining flask contents are dissolved in 0.5 ml of benzene or chloroform and the polymer is precipitated by adding 0.5 ml of n-hexane. The solution then is centrifuged and the IR of the centrifugate is measured to determine undecomposed perester. All of the above procedures are carried out as far as possible in the dark. The light intensity is measured by benzophenone-benzhydrol actinometry and observed to be Io =6.56×10^17 quanta/min on the average. The temperature of the tubes is maintained at 30° C.
The efficiency of the radicals to initiate polymerization, f, in the absence of any appreciable amount of chain transfer, can be defined as [formula] assuming bimolecular termination by the combination of two growing chains only [formula] whereas kd =rate of decomposition of perester in mol/liter sec. in the absence of monomer (a function of light intensity).

[11] = End group analysis of polystyrene by IR
Procedure: The polystyrene obtained from each of the above polymerizations is purified by repeated (four times) precipitation from benzene solution with methanol. Before each precipitation, the benzene solution is centrifuged to remove any insoluble material. The finely powdered polymer is filtered and dried under vacuum for two days. Known amounts of polymer are dissolved in benzene and the IR is taken (2000-1500 cm^-1) against benzene in 0.1-mm NaCl cells. The peaks at 1730 and 1670 cm^-1 for the carbonyl groups, caused by ester and benzophenones, respectively, are measured. […] The extinction coefficient of the carbonyl group at 1730 cm^-1 is compared with that of authenticated methyl benzoylbenzoate, which is used as a model to measure the concentration of the ester end groups in the polymer. From the concentration of the ester and the extinction resulting from the carbonyl group in the benzophenone, the absorption caused by the benzophenone that is present as the ester can be calculated. The value is subtracted from the absorption obtained at 1670 cm^- 1 for the polymer. From the resulting absorption, the concentration of benzophenone alone is estimated from the known extinction of benzophenone at that wavelength.

[12] = Relative quantum yield of initiator decomposition in presence of monomer (IR at 1770 cm^-1); format: physicochemical; conditions: for relative quantum yield φrel of decomposition: chloroform, initiator 2 × 10^-2 M
Procedure: as §1, §2
The decomposition of the initiator employed is followed by IR at 1770 cm^-1 (caused by the carbonyl adjacent to the peroxy group) against an appropriate solvent blank. The initiators employed are .rho.-benzoylperoxybenzoic acid tert-butylester (Ia) and prior art benzophenone peroxide. In addition, the above procedure is repeated except that methyl methacrylate is employed in place of styrene. Table IX below illustrates the relative quantum yield for the decomposition of the initiators in the recited amounts of monomers, assuming that the quantum yield for the decomposition of the perester and peroxide in the absence of any monomer is one.

[13] = 110° C., chlorobenzene, dark, initial concn Ia 5.01, Ib 5.15, Ic 5.19 × 10^-2 M
[14] = Exp. 7: chloroform, [I] 5.0 × 10^-3 M, styrene 3.61 M
[15] = Exp. 8: chloroform, [I] 4.52 × 10^-3 M, styrene 4.33 M
[16] = Exp. 9: chloroform, [I] 4.94 × 10^-3 M, styrene 5.88 M

- triplet energy ET [1]: 67.4 kcal/mol
- apparent first-order photodecomposition rate constant kd × 10^4 ([3]; C6 H6, 25° C., 366 nm, I = 6.56 × 10^17 quanta/min, 5.03-6.06 × 10^-2 M, given as kd × 10^4): 1.34 s^-1
- quantum yield of decomposition (φ of dec) ([3]; C6 H6, 366 nm, perester 5.03-6.06 × 10^-2 M): 0.80
- quantum yield of decomposition (φ of dec) ([3]; methanol, TBP 5.08 × 10^-2 M, Ia 5.38, Ib 6.15 × 10^-2 M): 0.62
- quantum yield of decomposition (φ of dec) ([3]; methanol, no TBP, Ia 5.38, Ib 6.15, Ic 5.10 × 10^-2 M): 1.30
- quenching constant kq τ [5]: 15
- thermal half-life t1/2 [6, 13]: 10.7 h
Structure (SMILES): Cc1cc(C)c(C(=O)c2ccc(C(=O)OOC(C)(C)C)cc2)c(C)c1 [Ib, Tert-butyl-4-(2',4',6'-trimethylbenzoyl)perbenzoate]
- rate of photodecomposition, qualitative [2]: the effect of methanol is to slow the rate of decomposition; also recorded: apparently slower rate of decomposition in methanol than either that of Ia or Ic
- Rate of Polymerization (Rp) of MMA, Rp × 10^5 [4]: 8.31 mL^-1 s^-1
- thermal 1st order dec rate × 10^5 [6, 13]: 1.80 M × 10^5 s^-1

Structure (SMILES): C=Cc1ccccc1 [Styrene]
- triplet energy [7]: 62 kcal/mol

Structure (SMILES): Cc1ccc(C(=O)c2ccc(C(=O)OOC(C)(C)C)cc2)cc1
- Passes necessary to achieve resistance to wiping [8]: 13
- Pendulum hardness according to Konig, H ([8]; after 13 passes): 23
- Pendulum hardness according to Konig, H ([8]; after 15 passes): 51

Structure (SMILES): O=C(OOC(=O)c1ccccc1)c1ccccc1 [Bz2 O2, benzoyl peroxide, reference compound]
- photodecomposition behaviour, in words ([3]; 366 nm radiation, room temperature): photostable
- quantum yield of sensitized decomposition (φ of dec) ([3]; C6 H6, 4.67 × 10^-2 M, benzophenone 5.89 × 10^-2 M): 0.32
- sensitized photodecomposition rate constant kd × 10^4 ([3]; C6 H6, 25° C., 4.67 × 10^-2 M, benzophenone 5.89 × 10^-2 M, given as kd × 10^4): 0.64 s^-1
- quantum yield of sensitized decomposition (φ of dec) ([3]; CCl4, 3.50 × 10^-2 M, benzophenone 3.75 × 10^-2 M): 0.17
- Rate of Polymerization (Rp) of MMA, Rp × 10^5 ([4]; benzophenone 5.5 × 10^-2 M): 2.58 mL^-1 s^-1
- thermal decomposition, in words ([6]; 80° C. in benzene): a decomposition rate comparable to the literature value

Structure (SMILES): O=C(c1ccccc1)c1ccccc1 [Benzophenone, reference compound]
- triplet energy [7]: ~69 kcal/mol
- Passes necessary to achieve resistance to wiping [8]: > 20
- Pendulum hardness according to Konig, H ([8]; number of passes for hardness not given): wet

- solubility in benzene [9]: insoluble in benzene
- φrel ([10]; [M] 3.61 M): 0.08
- φrel ([10]; [M] 4.33 M): 0.08
- φrel ([10]; [M] 5.88 M): 0.08
- relative quantum yield φrel of decomposition ([12]; styrene 2.18 M): 0.05
- relative quantum yield φrel of decomposition ([12]; styrene 2.23 M): 0.06
- relative quantum yield φrel of decomposition ([12]; styrene 4.26 M): 0.08
Structure (SMILES): O=C(OOC(=O)c1ccc(C(=O)c2ccccc2)cc1)c1ccc(C(=O)c2ccccc2)cc1 [Peroxide, reference compound]
- Average degree of polymerization ([10]; [M] 3.61 M): 159.6
- Radical efficiency f ([10]; [M] 3.61 M): 0.33
- Rp × 10^5 ([10]; [M] 3.61 M): 1.07 mole/liter sec
- Average degree of polymerization ([10]; [M] 4.33 M): 155.8
- Radical efficiency f ([10]; [M] 4.33 M): 0.33
- Rp × 10^5 ([10]; [M] 4.33 M): 1.04 mole/liter sec
- Average degree of polymerization ([10]; [M] 5.88 M): 372.9
- Radical efficiency f ([10]; [M] 5.88 M): 0.26
- Rp × 10^5 ([10]; [M] 5.88 M): 1.72 mole/liter sec
- total number of benzophenones as end groups per chain, in words [11]: almost two
- end groups per chain, Benzophenone [11, 14]: 0.54
- end groups per chain, Benzophenone as ester [11, 14]: 1.29
- end groups per chain, Total [11, 14]: 1.83
- end groups per chain, Benzophenone [11, 15]: 0.62
- end groups per chain, Benzophenone as ester [11, 15]: 1.30
- end groups per chain, Total [11, 15]: 1.92
- end groups per chain, Benzophenone [11, 16]: 0.72
- end groups per chain, Benzophenone as ester [11, 16]: 1.36
- end groups per chain, Total [11, 16]: 2.08
- effect of styrene on quantum yield of decomposition, in words [12]: the quenching effect being greater with the peroxide than the perester

Structure (SMILES): COc1ccc(C(=O)c2ccc(C(=O)OOC(C)(C)C)cc2)cc1
- Passes necessary to achieve resistance to wiping [8]: 14
- Pendulum hardness according to Konig, H ([8]; after 14 passes): 23
- Pendulum hardness according to Konig, H ([8]; after 16 passes): 26

Structure (SMILES): CC(C)(C)OOC(=O)c1ccc(C(=O)c2ccccc2)cc1 [drawing 15]
- Passes necessary to achieve resistance to wiping [8]: 12
- Pendulum hardness according to Konig, H ([8]; after 12 passes): 24
- Pendulum hardness according to Konig, H ([8]; after 14 passes): 38
